Source: BigSolDB 2.1

N[C@H](Cc1c[nH]cn1)C(=O)O
solubility (mole fraction)
Conditions | 293.15 K | 298.15 K | 303.15 K | 308.15 K | 313.15 K | 318.15 K | 323.15 K | 328.15 K | 333.15 K
in 1,4-dioxane | 0.0072 | 0.00864 | 0.0102 | 0.0117 | 0.0135 | 0.0152 | 0.0179 | 0.0206 | 0.0245
in DMF | 0.154 | 0.176 | 0.201 | 0.228 | 0.258 | 0.29 | 0.326 | 0.365 | 0.417
in DMSO | 0.0171 | 0.0199 | 0.0232 | 0.0267 | 0.0308 | 0.0353 | 0.0403 | 0.0459 | 0.0543
in NMP | 0.0656 | 0.0752 | 0.0859 | 0.0977 | 0.111 | 0.127 | 0.14 | 0.157 | 0.178
in cyclohexane | 0.000445 | 0.000565 | 0.000714 | 0.000897 | 0.00111 | 0.00138 | 0.00169 | 0.00216 | 0.00252
in ethanol | 0.000253 | 0.000329 | 0.000433 | 0.000557 | 0.000724 | 0.000915 | 0.0012 | 0.00145 | 0.00181
in ethylene glycol | 0.00215 | 0.00263 | 0.0032 | 0.00385 | 0.00459 | 0.00559 | 0.00654 | 0.00774 | 0.00944
in isobutanol | 0.000546 | 0.000681 | 0.00085 | 0.00105 | 0.00129 | 0.00156 | 0.00201 | 0.0024 | 0.00286
in isopropanol | 0.000369 | 0.00047 | 0.000598 | 0.000759 | 0.000945 | 0.00117 | 0.00146 | 0.00177 | 0.00228
in methanol | 0.00019 | 0.000252 | 0.00033 | 0.000431 | 0.000562 | 0.000712 | 0.000904 | 0.00119 | 0.00156
in n-butanol | 0.0007 | 0.000865 | 0.00105 | 0.00128 | 0.00155 | 0.00187 | 0.00224 | 0.00263 | 0.0033
in n-propanol | 0.000484 | 0.00061 | 0.00076 | 0.000941 | 0.00115 | 0.00142 | 0.00172 | 0.00208 | 0.00263
in water | 0.00458 | 0.00506 | 0.00556 | 0.00619 | 0.00686 | 0.00765 | 0.00878 | 0.00971 | 0.0118
